In patent US20260125360A1, “HERBICIDAL IMIDAZOLE COMPOUNDS” (SYNGENTA CROP PROTECTION AG, priority 2022, published 2026):

Key:
Assay type in all cases: in vivo
Conditions in all cases: 250 g/ha, evaluated after 13 days
[1] = test system: Amaranthus retoflexus (AMARE); test: Post-emergence herbicide glasshouse test
Procedure: (§1) Seeds of a variety of test species are sown in standard soil in pots Amaranthus palmeri (AMAPA), Amaranthus retoflexus (AMARE), Echinochloa crus-galli (ECHCG), Ipomoea hederacea (IPOHE)). After cultivation for one day (pre-emergence) or after 8 days cultivation (post-emergence) under controlled conditions in a glasshouse (at 24/16° C., day/night; 14 hours light; 65% humidity), the plants are sprayed with an aqueous spray solution derived from the formulation of the technical active ingredient in acetone/water (50:50) solution containing 0.5% Tween 20 (polyoxyethelyene sorbitan monolaurate, CAS RN 9005-64-5). Compounds are applied at 250 g/ha unless otherwise stated. The test plants are then grown in a glasshouse under controlled conditions in a glasshouse (at 24/16° C., day/night; 14 hours light; 65% humidity) and watered twice daily. After 13 days for pre and post-emergence, the test is evaluated for the percentage damage caused to the plant. The biological activities are shown in the following table on a five-point scale (5=81-100%; 4=61-80%; 3=41-60%; 2=21-40%; 1=0-20%).

[2] = test system: Amaranthus palmeri (AMAPA); test: Post-emergence herbicide glasshouse test
Procedure: as §1

[3] = test system: Ipomoea hederacea (IPOHE); test: Post-emergence herbicide glasshouse test
Procedure: as §1

[4] = test system: Echinochloa crus-galli (ECHCG); test: Post-emergence herbicide glasshouse test
Procedure: as §1

[5] = test system: Amaranthus retoflexus (AMARE); test: Pre-emergence herbicide glasshouse test
Procedure: as §1

[6] = test system: Amaranthus palmeri (AMAPA); test: Pre-emergence herbicide glasshouse test
Procedure: as §1

[7] = test system: Ipomoea hederacea (IPOHE); test: Pre-emergence herbicide glasshouse test
Procedure: as §1

[8] = test system: Echinochloa crus-galli (ECHCG); test: Pre-emergence herbicide glasshouse test
Procedure: as §1

Compound	percentage damage caused to the plant, AMARE (five-point scale) [1]	percentage damage caused to the plant, AMAPA (five-point scale) [2]	percentage damage caused to the plant, IPOHE (five-point scale) [3]	percentage damage caused to the plant, ECHCG (five-point scale) [4]	percentage damage caused to the plant, AMARE (five-point scale) [5]	percentage damage caused to the plant, AMAPA (five-point scale) [6]	percentage damage caused to the plant, IPOHE (five-point scale) [7]	percentage damage caused to the plant, ECHCG (five-point scale) [8]
Cc1nnc(Cn2cc(C(F)F)nc2-c2cnc(Cl)c(F)c2)s1 [Compound 1.016]	1 (1=0-20%)	1 (1=0-20%)	1 (1=0-20%)	1 (1=0-20%)	5 (5=81-100%)	4 (4=61-80%)	1 (1=0-20%)	1 (1=0-20%)
Cc1nnc(Cn2cc(C(F)(F)F)nc2-c2cnc(Cl)c(F)c2)s1 [Compound 1.017]	5 (5=81-100%)	5 (5=81-100%)	1 (1=0-20%)	2 (2=21-40%)	5 (5=81-100%)	5 (5=81-100%)	5 (5=81-100%)	4 (4=61-80%)
Cn1cnc(Cn2cc(C(F)(F)F)nc2-c2cnc(Cl)c(F)c2)n1 [Compound 1.018]	5 (5=81-100%)	5 (5=81-100%)	4 (4=61-80%)	5 (5=81-100%)	5 (5=81-100%)	5 (5=81-100%)	5 (5=81-100%)	5 (5=81-100%)
Cn1cnc(Cn2cc(C(F)(F)F)nc2-c2ccc(F)c(F)c2)n1 [Compound 1.020]	5 (5=81-100%)	5 (5=81-100%)	4 (4=61-80%)	5 (5=81-100%)	5 (5=81-100%)	5 (5=81-100%)	5 (5=81-100%)	5 (5=81-100%)
Cc1nnc(Cn2cc(C(F)(F)F)nc2-c2ccc(F)c(F)c2)s1 [Compound 1.021]	5 (5=81-100%)	5 (5=81-100%)	4 (4=61-80%)	4 (4=61-80%)	5 (5=81-100%)	5 (5=81-100%)	5 (5=81-100%)	5 (5=81-100%)
Cc1cc(Cn2cc(C(F)F)nc2-c2cnc(Cl)c(F)c2)no1 [Compound 1.024]	5 (5=81-100%)	5 (5=81-100%)	4 (4=61-80%)	2 (2=21-40%)	5 (5=81-100%)	5 (5=81-100%)	5 (5=81-100%)	4 (4=61-80%)
Cc1cc(Cn2cc(C(F)(F)F)nc2-c2cnc(Cl)c(F)c2)no1 [Compound 1.025]	5 (5=81-100%)	4 (4=61-80%)	2 (2=21-40%)	4 (4=61-80%)	5 (5=81-100%)	5 (5=81-100%)	4 (4=61-80%)	4 (4=61-80%)
